Laboratory results from patent US20070161611A1, “POLYCYCLIC PHENOLIC COMPOUNDS AND USE IN TREATING VIRAL INFECTIONS” (priority 2005, published 2007).
Read-outs that look alike come from different tables or passages of the source.

Experiments:
HIV-1RF = assay: Anti-HIV-1 activity in CEM-SS cells (inhibition of HIV-1 induced cytotoxicity); settings: Human immunodeficiency virus 1, CEM-SS; for EC50: read-out: CEM-SS/HIV-1RF EC50
BVDV-NADL = assay: Protection of MDBK cells from BVDV-induced cytopathicity (MTS/PMS CPE reduction assay); format: cell-based; settings: Bovine viral diarrhea virus isolates and strains
Protocol: Cell proliferation was monitored using a non-radioactive MTS/PMS assay (MTS: 3-(4,5-dimethylthiazol-2-yl)-5-(3-carboxymethoxy phenyl)-2-(4-sulfophenyl)-2H-tetrazolium (Promega, Madison, Wis.)); (PMS: phenazine methosulfate (Sigma Aldrich, St. Louis, Mo.)). MDBK cells were seeded into 96-well plates at a density of approximately 2×10^4 cells per well. The cultures were incubated 3-24 hours to permit attachment of the cells to the plates prior to infection and addition of compounds. The appropriate PFU of BVDV-NADL were added to each well to achieve the desired MOI (<1 or >0.001); the cells were exposed to the virus diluted at the appropriate concentration in phosphate buffered saline (PBS) containing 1% horse serum (HS) for 1 to 2 hours. The virus was then removed and the cells were washed with PBS containing 1% HS. The test compounds were serially diluted in cell growth media with 2% HS and added to the cells. The plates were incubated at 37° C. in the presence of 5% CO2 for 3-4 days. Uninfected cells and infected, untreated cells (without compound) were used as additional controls. The final volume was 100 μl per well. After the 3-4 days of incubation a volume of 20 μL of the combined MTS/PMS solution was added into each well of the 96-well assay plate containing 100 μL of cells in culture medium to obtain final concentrations of 333 μg/ml MTS 5 and 25 μM PMS. A 96-well microtiter spectrophotometer plate reader was used to measure the absorbance at 490 nm after incubation of the 96-well plate for 1 to 4 hours at 37° C. in a humidified, 5% CO2 atmosphere. The mean absorbance in each set of triplicate wells was determined. Antiviral activity was measured as MTS conversion relative to the differential between the conversion for cell (non-infected) and viral (non-drug-treated) controls. The cytopathic effect (CPE) reduction for each concentration of the tested compound, which correlated with antiviral activity, was calculated as follows. % CPE reduction=[(D−ND)/(NI−ND)]×100, where D (drug-treated)=the absorbance of drug-treated cells; ND (non drug-treated)=the absorbance of untreated infected cells; and NI (non-infected)=the absorbance of non-infected cells. EC50 represents the concentration of drug that protects 50% of the cells from BVDV induced cytotoxicity (50% CPE reduction). CC50 equals the concentration that affects the viability of 50% of the MDBK cells.
The compounds were combined at fixed molar ratios and serially diluted 2-fold in cell growth medium to examine a range of 6 fixed ratio combinations including those having about an equipotent antiviral dose to a combination in which one test compound was used at a sub-optimal level (e.g., sub-therapeutic).

in vitro [1] = settings: human
[2] = test system: HCV sub-genomic replicon genotype 1b; assay: HCV sub-genomic replicon assay in AVA5 cells (HCV RNA dot blot hybridization); format: cell-based, Hepatitis C Virus; settings: for SI (Selectivity Index): HCV replicon genotype 1b; for EC50: Hepatitis C virus, AVA5 cells, once daily for three days, HCV RNA 24 h after last dose
in vitro [3] = format: cell-based; settings: bovine
Protocol: Cell proliferation was monitored using a non-radioactive MTS/PMS assay (MTS: 3-(4,5-dimethylthiazol-2-yl)-5-(3-carboxymethoxy phenyl)-2-(4-sulfophenyl)-2H-tetrazolium (Promega, Madison, Wis.)); (PMS: phenazine methosulfate (Sigma Aldrich, St. Louis, Mo.)). MDBK cells were seeded into 96-well plates at a density of approximately 2×10^4 cells per well. The cultures were incubated 3-24 hours to permit attachment of the cells to the plates prior to infection and addition of compounds. […] A 96-well microtiter spectrophotometer plate reader was used to measure the absorbance at 490 nm after incubation of the 96-well plate for 1 to 4 hours at 37° C. in a humidified, 5% CO2 atmosphere. The mean absorbance in each set of triplicate wells was determined. Antiviral activity was measured as MTS conversion relative to the differential between the conversion for cell (non-infected) and viral (non-drug-treated) controls. The cytopathic effect (CPE) reduction for each concentration of the tested compound, which correlated with antiviral activity, was calculated as follows. % CPE reduction=[(D−ND)/(NI−ND)]×100, where D (drug-treated)=the absorbance of drug-treated cells; ND (non drug-treated)=the absorbance of untreated infected cells; and NI (non-infected)=the absorbance of non-infected cells. […]

[4] = Toxicity in AVA5 replicon cells (neutral red dye uptake); settings: human, AVA5 cells (HCV RNA-replicating, Huh7-derived)
Protocol: The antiviral activity of test compounds were assayed in the stably HCV RNA-replicating cell line, AVA5, derived by transfection of the human hepatoblastoma cell line, Huh7 (Blight, et al., 2000, Science 290: 1972). […] Intracellular HCV RNA levels and cytotoxicity were assessed 24 hours after the last dose of compound.
Assays were conducted using 4-5 doses of test compound. […] HCV RNA levels were assessed 24 hours after the last dose of compound using a dot blot hybridization assay. Both HCV and β-actin RNA levels in triplicate treated cultures were expressed as a percentage of the mean levels of RNA detected in untreated cultures (6 total). β-Actin RNA levels were used both as a measure of toxicity, and to normalize the amount of cellular RNA in each sample. Toxicity analyses were performed on separate plates from those used for the antiviral assays. Cells for the toxicity analyses were cultured and treated with test compounds with the same schedule and under identical culture conditions as used for the antiviral evaluations. Uptake of neutral red dye was used to determine the relative level of toxicity 24 hours following the last treatment. The absorbance of internalized dye at 510 nm (A510) was used for the quantitative analysis. Values in test cultures were compared to 9 cultures of untreated cells maintained on the same plate as the test cultures.

CEM-SS cells = assay: Cytotoxicity in CEM-SS cells; settings: at 300 μM
MDBK cells = assay: Cytotoxicity in uninfected MDBK cells after 24 h treatment (OD490); format: cell-based, bovine; settings: untreated control OD490 1.2
Protocol: (§1) Madin-Darby Bovine Kidney Cells (MDBK) (American Type Culture Collection (ATCC) No. CCL-22, Manassas, Va) were seeded into 96-well plates at a density of approximately 2×10^4 cells per well. The cell cultures were incubated for 3-24 hours to allow for attachment of cells to the culture plates prior to infection and addition of compounds. BVDV strain NADL (ATCC No. VR-534) plaque forming units (PFU) were added to each well to achieve a multiplicity of infection (MOI) ranging from about 1 or about 0.001, and allowed to remain in contact with the cultured cells for 1 to 2 hours. The virus was then removed and the cells were washed with growth medium (e.g., Dulbecco's Modified Eagles Medium (DMEM)) containing 5% horse serum (HS), or with phosphate buffered saline (PBS), 1% HS, and 1 mM MgCl2. The test compounds, dissolved in cell growth media with 2% HS, were then added to the BVDV-infected cells or uninfected cells (cytotoxicity determination) at various concentrations. The plates were incubated at 37° C., 5% CO2 for 24 hours (i.e., about one cycle of BVDV replication). The plates were then centrifuged at low speed and the supernatant was serially diluted for use in infecting a new monolayer of cells in 12-well plates. […] The virus plaques formed in MDBK cell cultures were quantified by a manual count and a titer was determined.

[5] = as above; format: cell-based, bovine; settings: bovine, compared to control, read-out: % Cytotoxicity of Compound 20 (1 μM)
Protocol: as §1

[6] = test system: non-cytopathic BVDV Pe515; assay: Non-cytopathic BVDV genomic RNA reduction in MDBK cells (qRT-PCR); format: cell-based; settings: Bovine viral diarrhea virus isolates and strains, 72 h, MOI 0.001, three day treatment, FIG. 1, read-out: EC50 of ncp BVDV genomic replication
Protocol: MDBK cells were seeded into 6-or 96-well plates at a density of approximately 2×10^4 cells per well. The cultures were incubated 3-24 hours to permit attachment of the cells to the plates prior to infection and addition of compounds. The appropriate number of non-cytopathic BVDV Pe515 (ncp BVDV) PFU were added to each well to achieve the desired MOI (0.001); the cells were contacted with the virus diluted at the appropriate concentration in PBS containing 1% HS and 1 mM MgCl2 for 1 to 2 hours. The test compounds dissolved in cell growth media with 2% HS were added to the cells at varying concentrations. The plates were incubated at 37° C. in the presence of 5% CO2 for 3-4 days. […] Real-time quantitation was done using the Quantitative One Step Reverse Transcriptase (RT) Polymerase Chain Reaction (qRT-PCR) MasterMix Plus for SYBR® Green I (Eurogentec, San Diego, calif.). […] The following primers were used for the one step RT-PCR SYBR quantitation assay: forward primer 5′-[…]-3′ (SEQ ID NO:1) and reverse primer 5′-[…]-3′ (SEQ ID NO:2). […] Well-to-well variations in background fluorescence were corrected for by use of a ROX-labeled passive reference, included as part of the Eurogentec One Step qRT-PCR Master Mix for each sample. Amplification curves were analyzed by using empirically established cycle threshold and baseline settings for the assay. […]

BVDV strain NADL = assay: Inhibition of viral release in BVDV-infected MDBK cells (plaque titration of supernatant); format: cell-based, Bovine Viral Diarrhea virus; settings: 24 h treatment
Protocol: as §1

[7] = MOI of 0.01, monotherapy run in parallel to combination studies, read-out: EC50 (monotherapy)
[8] = MOI = 0.05, 3-4 days, read-out: EC50

| SMILES | EC50 (HIV-1RF) | EC50 (BVDV-NADL; [7]) | CC50 (in vitro [1]) | SI (Selectivity Index) [2] | EC50 [2] | CC50 at 3 days [4] | also measured |
| --- | --- | --- | --- | --- | --- | --- | --- |
| C[C@]12CCC3c4cc(C56CC7CC(CC(C7)C5)C6)c(O)cc4CCC3C1CCC2=O (stereo partly shown) [Compound 2] | 19.7 µM | 0.23 µM | > 100 µM |  |  |  |  |
| C[C@]12CC[C@@H]3c4cc(C56CC7CC(CC(C7)C5)C6)c(O)cc4CC[C@H]3[C@@H]1CC/C2=N\N [Compound 4] |  |  |  | 353 | 0.068 µM | 24 µM | CC50 (in vitro [3]): 34.5 ± 23.2 µM; EC50 (BVDV-NADL; [8]): 3.99 ± 0.99 µM |
| C[C@@]1(O)[C@H](O)[C@@H](CO)O[C@H]1n1ccc(N)nc1=O [NM107, 2′-C-methyl cytidine, reference compound] |  | 0.99 µM |  |  |  |  |  |
| CO/N=C1\CC[C@H]2[C@@H]3CCc4cc(O)c(C56CC7CC(CC(C7)C5)C6)cc4[C@H]3CC[C@]12C [Compound 5] | 5.8 µM |  | 17.3 µM |  |  |  |  |
| C[C@]12CC[C@@H]3c4ccc(OS(=O)(=O)O)cc4CC[C@H]3[C@@H]1CC[C@H]2O [Compound 16, 17(α)-estradiol-3-sulfate sodium] | > 300 µM |  |  | >196 | 0.51 µM | > 100 µM | cytotoxicity shown by the compound (CEM-SS cells): no cytotoxicity; inhibition at 300 µM (HIV-1RF; read-out: inhibition of HIV-1 induced cytotoxicity in CEM-SS cells): 20%; CC50 (in vitro [1]; CEM-SS cells): > 300 µM |
| C[C@]12CC[C@@H]3c4cc(C56CC7CC(CC(C7)C5)C6)c(O)cc4CC[C@H]3[C@@H]1CC[C@@H]2O [Compound 20, 17(β)-2-(1-adamantyl)-estra-1,3,5(10)-triene-3,17-diol] | 8.6 µM |  | 14.3 µM | 188 | 0.043 µM | 8.1 µM | OD490 - 1 μM Compound 20 (MDBK cells): 1.2; cytotoxicity at 24 h, 1 µM [5]: 0%; EC50 [6]: ~0.15 µM; CC50 (in vitro [3]): 40.1 ± 25.1 µM; Viral titer in presence of 1 μM of Compound 20 (BVDV strain NADL; untreated control 7.0 × 10^5 PFU/mL): 2.2 × 10^5 PFU/mL; inhibition at 1 µM (BVDV strain NADL; Bovine viral diarrhea virus isolates and strains, MDBK, compared to control, read-out: % Inhibition of Viral Release by Compound 20 at 1 μM): 69%; EC50 (BVDV-NADL; MOI 0.01, read-out: EC50): 0.34 ± 0.02 µM; EC50 (BVDV-NADL; MOI 0.02, read-out: EC50): 0.51 µM; EC50 (BVDV-NADL; MOI 0.03, read-out: EC50): 0.46 µM; EC50 (BVDV-NADL; [8]): 0.8 ± 0.22 µM |
| CCCC(=O)O[C@H]1CN2CC[C@H](O)[C@@H]2[C@@H](O)[C@@H]1O [Celgosivir, [1S-(1α,6β,7α,8β,8αβ)]-octahydro-1,6,7,8-indolizinetetrol 6-butanoate, reference compound] |  | 2.2 µM |  |  |  |  |  |
